Results: the SangsterLogP compilation

Experiment: method code SF-AS, from DOI: 10.1002/jps.2600830428, PMID: 8046619
Details: pH 7.4

Row | logD | Compound
1 | -1.15 | O=c1nc(N=CN2CCCC2)ccn1[C@@H]1O[C@H](CO)[C@@H](O)[C@@H]1O
2 | -1.54 | O=c1nc(/N=C/N2CCOCC2)ccn1[C@H]1C[C@H](O)[C@@H](CO)O1
3 | -1.66 | O=c1nc(N=CN2CCOCC2)ccn1[C@@H]1O[C@H](CO)[C@@H](O)[C@@H]1O
